One data set concerns insects. The following applies: background statement, cited from earlier work; for insecticidal activity (in words): compared with DDT towards other species of insects; for insecticidal activity (in words), general: toward certain species of insects.
For data set [1], the system named is female house flies, Musca domestica, susceptible (SNAIDM). The experiment in a line: Topical application to female house flies, susceptible (SNAIDM) strain. The following applies: read-out: topical LD50 female housefly, Susceptible. As to the method: (§1) Compositions of the present invention were tested for insecticidal activities determined by standard methods, and compared with the activities of DDT and other symmetrical analogues of DDT, e.g. methoxychlor. In these tests, female house flies, Musca domestica, under CO2 anesthesia, were treated with topical application of 1 ul drops of w/v solutions of the insecticides in acetone. Three replicates of 20 flies 2-4 days old were treated on the pronotum at each dosage, and at least 5 dosages were used to establish each dosage versus mortality curve. Mortalities were determined by holding the flies at 72° F. (22° C.) with 40% sucrose solution as food. Topical applications were made to both susceptible (SNAIDM) and DDT-resistant (Rsp) strains in exactly the same manner. The results of these evaluations are reported in Table II as LD50 values in ug. of toxicant per gram of insect using the average weight of the house fly as 20 mg. Evaluations of the toxicity of the same compositions to the larvae of the mosquitoes Culex pipiens quinquefasciatus and Anopheles albimanus were made as described by WHO (VBC/1968) and the results are also shown in Table II.

For data set [2], the system named is larvae of the mosquito Anopheles albimanus. The experiment in a line: Toxicity to mosquito larvae as described by WHO (VBC/1968), Anopheles albimanus. In kind it is in vivo.
Data set [3] has as its system female house flies, Musca domestica, DDT-resistant (Rsp). The experiment in a line: Topical application to female house flies, DDT-resistant (Rsp) strain. The following applies: read-out: topical LD50 female housefly, DDT-resistant. The protocol:
as §1

For data set [4], the system named is larvae of the mosquito Culex pipiens quinquefasciatus. The experiment in a line: Toxicity to mosquito larvae as described by WHO (VBC/1968), Culex pipiens quinquefasciatus. Format: in vivo.
The subject of data set [5] is multifunction oxidase (MFO) enzymes. The following applies: background statement; cited from earlier work.
The conditions of data set [6]: background statement; cited from earlier work.

≈ marks a conversion by molar mass, not a printed value.

As for `Cc1ccc(C(c2ccc(C)cc2)C(Cl)(Cl)Cl)cc1` [methylchor, 1,1,1-trichloro-2,2-bis (p methylphenyl)ethane], in the data set on insects, the “insecticidal activity (in words)” value was “considerably less insecticidal activity than DDT towards other species of insects” and the “insecticidal activity (in words), general” value was “satisfactory insecticidal activity toward certain species of insects”.

Consider `COc1ccc(C(c2ccc(SC)cc2)C(Cl)(Cl)Cl)cc1` (stereo not drawn) [Example I, 2-(p-methoxyphenyl)-2-(p-methylthiophenyl)-1,1,1-trichloroethane], for which the values for the LD50 in data set [1] and in data set [3] were 23.5 mg/kg and 80 mg/kg, respectively. The LC50 in data set [2] is 0.044 µg/mL (≈ 0.122 µM); in data set [4], 0.11 µg/mL (≈ 0.304 µM).

On to `CCOc1ccc(C(c2ccc(SC)cc2)C(Cl)(Cl)Cl)cc1` (stereo not drawn) [Example II], for which the LD50 in data set [1] worked out at 32 mg/kg; in data set [3] it was 85 mg/kg. In addition, the LC50 in data set [2] was 0.054 µg/mL (≈ 0.144 µM); in data set [4], 0.07 µg/mL (≈ 0.186 µM).

In the case of `CCOc1ccc(C(c2ccc(C)cc2)C(Cl)(Cl)Cl)cc1` (stereo not drawn) [Example IV], the LD50 in data set [1] was found to be 9 mg/kg; in data set [3], 27 mg/kg. The LC50 in data set [2] is 0.11 µg/mL (≈ 0.32 µM); in data set [4] it was 0.13 µg/mL (≈ 0.378 µM).

In the case of `Clc1ccc(C(c2ccc(Cl)cc2)C(Cl)(Cl)Cl)cc1` [DDT, 1,1,1-trichloro-2,2-bis(p-chlorophenyl)ethane, reference compound], the “susceptibility to attack / detoxication by MFO enzymes” value in data set [5] is “highly resistant to detoxication by MFO enzymes”. Moreover, the results for the LD50 in data set [1] and in data set [3] were 14 mg/kg and 170 mg/kg, respectively. The LC50 came out at 0.016 µg/mL (≈ 0.0451 µM) in data set [2] and 0.07 µg/mL (≈ 0.197 µM) in data set [4]. The lipid solubility entry in data set [6] is listed as “high lipid solubility”. Further, in data set [6], the water solubility result is “very low water solubility”.

As to `COc1ccc(C(c2ccc(OC)cc2)C(Cl)(Cl)Cl)cc1` [Methoxychlor, 1,1,1-trichloro-2,2-bis-(pmethoxyphenyl)ethane, reference compound], in data set [5], the “susceptibility to attack / detoxication by MFO enzymes” value is reported as “readily attacked by MFO enzymes”. Besides, the “insecticidal activity (in words)” value with insects was “considerably less insecticidal activity than DDT towards other species of insects”. For the same molecule, the “insecticidal activity (in words), general” value with insects is reported as “satisfactory insecticidal activity toward certain species of insects”. Also, the LD50 in data set [1] was determined as 45 mg/kg; in data set [3], 48 mg/kg. In addition, the LC50 in data set [2] is 0.18 µg/mL (≈ 0.521 µM); in data set [4], 0.067 µg/mL (≈ 0.194 µM).

As to `ClC(Cl)=C(c1ccc(Cl)cc1)c1ccc(Cl)cc1` [DDE, 1,1-dichloro-2,2-bis-(p-chloro-phyenyl)ethylene], the “susceptibility to attack / detoxication by MFO enzymes” value in data set [5] is “highly resistant to detoxication by MFO enzymes”.

As to `CCc1ccc(C(c2ccc(C)cc2)C(Cl)(Cl)Cl)cc1` (stereo not drawn) [Example VI], the LD50 in data set [1] was 11 mg/kg; in data set [3], 28 mg/kg. Further, the results for the median lethal concentration (LC50) in data set [2] and in data set [4] were 0.23 µg/mL (≈ 0.702 µM) and 0.08 µg/mL (≈ 0.244 µM), respectively.

In the case of `CSc1ccc(C(c2ccc(SC)cc2)C(Cl)(Cl)Cl)cc1` [methiochlor, 1,1,1-trichloro-2,2-bis-(pmethiophenyl)ethane], the “susceptibility to attack / detoxication by MFO enzymes” value in data set [5] is recorded as “readily attacked by MFO enzymes”. Moreover, in the data set with insects, the “insecticidal activity (in words)” value is “considerably less insecticidal activity than DDT towards other species of insects” and the “insecticidal activity (in words), general” value is reported as “satisfactory insecticidal activity toward certain species of insects”.

Turning to `Clc1ccc(C(c2ccc(Cl)cc2)C(Cl)Cl)cc1` [DDD, 1,1-dichloro 2,2-bis-(p-chlorophenyl) ethane], in data set [5], the “susceptibility to attack / detoxication by MFO enzymes” value is “highly resistant to detoxication by MFO enzymes”.

On to `CCCOc1ccc(C(c2ccc(C)cc2)C(Cl)(Cl)Cl)cc1` (stereo not drawn) [Example V], for which the values for the 50% lethal dose (LD50) in data set [1] and in data set [3] were 20 mg/kg and 55 mg/kg, respectively. Further, the values for the LC50 in data set [2] and in data set [4] were 0.2 µg/mL (≈ 0.559 µM) and 0.04 µg/mL (≈ 0.112 µM), respectively.

Consider `COc1ccc(C(c2ccc(C)cc2)C(Cl)(Cl)Cl)cc1` (stereo not drawn) [Example III], for which the median lethal dose (LD50) stood at 23.5 mg/kg in data set [1] and 62.5 mg/kg in data set [3]. The LC50 stood at 0.12 µg/mL (≈ 0.364 µM) in data set [2] and 0.085 µg/mL (≈ 0.258 µM) in data set [4].
